Laboratory results published in publication PMC11846820, “Inhibition of DYRK1B BY C81 impedes inflammatory processes in leukocytes by reducing STAT3 activity” (Cellular and Molecular Life Sciences: CMLS, 2025).

What was measured:
Experiment in all cases: NanoBRET target engagement (tracer displacement) in intact HEK293T cells
Type in all cases: cell-based
[1] = target: T1, DYRK1B (Homo sapiens, UniProt Q9Y463)
T1 construct: Full-length, terminal NanoLuc fusion

[2] = target: T2, DYRK2 (Homo sapiens, UniProt Q92630)
T2 construct: Full-length, terminal NanoLuc fusion
T2 sequence (Q92630 1-601): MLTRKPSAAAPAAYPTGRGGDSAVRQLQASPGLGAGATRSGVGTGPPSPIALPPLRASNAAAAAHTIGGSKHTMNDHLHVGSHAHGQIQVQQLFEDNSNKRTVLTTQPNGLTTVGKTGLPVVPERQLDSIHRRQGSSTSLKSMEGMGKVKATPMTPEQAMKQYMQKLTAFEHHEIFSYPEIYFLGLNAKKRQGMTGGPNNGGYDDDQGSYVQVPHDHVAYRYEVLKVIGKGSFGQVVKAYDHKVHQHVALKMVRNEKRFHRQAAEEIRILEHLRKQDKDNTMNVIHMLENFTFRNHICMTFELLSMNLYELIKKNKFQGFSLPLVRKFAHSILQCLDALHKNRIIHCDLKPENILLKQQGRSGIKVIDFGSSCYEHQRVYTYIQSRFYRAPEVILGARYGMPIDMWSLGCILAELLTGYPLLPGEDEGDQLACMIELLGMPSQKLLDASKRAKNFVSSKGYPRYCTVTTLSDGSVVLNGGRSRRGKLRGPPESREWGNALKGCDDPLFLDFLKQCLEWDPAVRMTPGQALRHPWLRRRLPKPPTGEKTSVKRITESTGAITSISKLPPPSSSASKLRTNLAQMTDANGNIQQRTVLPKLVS

[3] = target: T3, CLK4 (Homo sapiens, UniProt Q9HAZ1)
T3 construct: Full-length, terminal NanoLuc fusion
T3 sequence (Q9HAZ1 whole entry, the tested form may be a part): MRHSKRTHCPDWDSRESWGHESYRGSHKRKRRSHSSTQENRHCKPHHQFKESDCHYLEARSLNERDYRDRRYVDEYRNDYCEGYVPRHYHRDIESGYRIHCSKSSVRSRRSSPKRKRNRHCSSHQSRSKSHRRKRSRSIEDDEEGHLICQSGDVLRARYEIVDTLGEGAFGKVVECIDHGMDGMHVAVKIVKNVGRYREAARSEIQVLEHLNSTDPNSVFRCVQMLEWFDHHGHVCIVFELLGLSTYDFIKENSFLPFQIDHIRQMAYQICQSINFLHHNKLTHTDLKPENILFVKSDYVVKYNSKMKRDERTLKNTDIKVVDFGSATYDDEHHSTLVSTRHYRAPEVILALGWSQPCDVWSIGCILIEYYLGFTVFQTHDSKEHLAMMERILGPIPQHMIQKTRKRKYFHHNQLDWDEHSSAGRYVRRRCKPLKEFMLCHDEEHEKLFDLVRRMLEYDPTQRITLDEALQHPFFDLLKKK

[4] = target: T4, CLK1 (Homo sapiens, UniProt P49759)
T4 construct: Full-length, terminal NanoLuc fusion
T4 sequence (P49759 whole entry, the tested form may be a part): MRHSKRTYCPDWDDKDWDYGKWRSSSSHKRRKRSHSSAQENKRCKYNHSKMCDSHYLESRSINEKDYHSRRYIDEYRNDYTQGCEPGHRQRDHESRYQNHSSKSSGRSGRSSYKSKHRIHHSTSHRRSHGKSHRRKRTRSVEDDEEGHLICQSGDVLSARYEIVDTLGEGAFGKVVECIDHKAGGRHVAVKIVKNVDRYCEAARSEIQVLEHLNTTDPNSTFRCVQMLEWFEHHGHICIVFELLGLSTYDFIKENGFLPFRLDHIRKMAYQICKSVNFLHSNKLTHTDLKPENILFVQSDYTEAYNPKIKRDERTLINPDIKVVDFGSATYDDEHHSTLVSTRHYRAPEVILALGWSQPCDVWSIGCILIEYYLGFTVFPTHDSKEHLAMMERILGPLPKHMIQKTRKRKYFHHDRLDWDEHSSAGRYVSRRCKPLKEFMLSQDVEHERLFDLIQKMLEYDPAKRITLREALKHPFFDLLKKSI

[5] = target: T5, CLK2 (Homo sapiens, UniProt P49760)
T5 construct: Full-length, terminal NanoLuc fusion
T5 sequence (P49760 whole entry, the tested form may be a part): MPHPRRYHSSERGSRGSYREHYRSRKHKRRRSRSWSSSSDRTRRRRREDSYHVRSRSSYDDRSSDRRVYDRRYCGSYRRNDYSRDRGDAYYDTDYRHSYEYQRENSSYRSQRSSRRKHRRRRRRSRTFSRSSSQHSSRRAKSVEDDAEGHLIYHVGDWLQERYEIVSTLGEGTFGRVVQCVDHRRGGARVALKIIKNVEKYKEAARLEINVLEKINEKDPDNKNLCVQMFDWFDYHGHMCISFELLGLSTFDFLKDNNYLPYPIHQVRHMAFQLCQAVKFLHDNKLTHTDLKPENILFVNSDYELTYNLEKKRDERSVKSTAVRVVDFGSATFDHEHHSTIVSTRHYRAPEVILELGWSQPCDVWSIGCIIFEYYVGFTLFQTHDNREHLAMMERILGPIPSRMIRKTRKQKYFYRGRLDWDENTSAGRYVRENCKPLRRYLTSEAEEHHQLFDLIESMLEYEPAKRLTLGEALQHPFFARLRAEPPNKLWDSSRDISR

[6] = target: T6, DYRK1A (Homo sapiens, UniProt Q13627)
T6 construct: Full-length, terminal NanoLuc fusion

T1 sequence (Q9Y463 whole entry, the tested form may be a part): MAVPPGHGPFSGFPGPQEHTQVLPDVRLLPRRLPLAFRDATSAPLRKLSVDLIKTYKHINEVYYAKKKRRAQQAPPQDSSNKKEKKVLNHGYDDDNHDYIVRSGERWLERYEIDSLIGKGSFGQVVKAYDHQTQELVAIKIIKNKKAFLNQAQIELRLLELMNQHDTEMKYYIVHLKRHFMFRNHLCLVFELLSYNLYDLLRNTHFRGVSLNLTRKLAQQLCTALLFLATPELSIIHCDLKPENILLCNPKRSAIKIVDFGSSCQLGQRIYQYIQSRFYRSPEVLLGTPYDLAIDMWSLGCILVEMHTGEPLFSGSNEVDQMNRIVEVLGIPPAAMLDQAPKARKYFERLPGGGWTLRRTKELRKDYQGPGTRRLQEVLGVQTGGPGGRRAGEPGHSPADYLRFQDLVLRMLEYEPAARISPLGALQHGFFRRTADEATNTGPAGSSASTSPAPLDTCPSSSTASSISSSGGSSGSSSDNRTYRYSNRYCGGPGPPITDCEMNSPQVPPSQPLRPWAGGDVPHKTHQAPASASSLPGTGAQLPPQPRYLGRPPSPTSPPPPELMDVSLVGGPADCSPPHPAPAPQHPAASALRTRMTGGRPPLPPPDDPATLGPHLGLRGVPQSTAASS

Cc1nccc(-c2cn(Cc3ccccc3)c3cnccc23)n1 [AZ-DYRK1B-33]
EC50 [1]: 537 nM | EC50 [2]: 3400 nM | EC50 [3]: 119 nM | EC50 [4]: 299 nM | EC50 [5]: 5000 nM | EC50 [6]: 3800 nM
